This is an account of results in PMC9031226, “Preclinical Therapeutic Assessment of a New Chemotherapeutics [Dichloro(4,4’-Bis(2,2,3,3-Tetrafluoropropoxy) Methyl)-2,2’-Bipryridine) Platinum] in an Orthotopic Patient-Derived Xenograft Model of Triple-Negative Breast Cancers” (Pharmaceutics, 2022).

In experiment [1] the test system is MDA-MB-231 cells. Kind of experiment: Cell cycle analysis (PI staining, flow cytometry). The experiment is classed as cell-based, human. The note with it: 24 h; for DNA content in S phase: without exposure 14.75%; for DNA content in sub G1: without exposure 8.71%. The method, then: The pellet was collected and fixed in 99% ice-cold ethanol and then stored in a freezer at −20 °C for further processing of staining. To label DNA, those fixed cells were rapidly washed to remove the residual fixing agent, followed by staining with DNA intercalating agent propidium iodide solution (PI) for 30 min in the dark. The PI working solution contains 0.5% Triton X-100, 15 μg propidium iodide (PI; BioVision Inc., Milpitas, CA, USA) and 10 μg RNase A (Thermo Fisher Scientific Inc., Waltham, MA, USA) in 1 mL PBS. The measurement and acquisition of DNA content were conducted using FACSVerse^TM Flow Cytometer (BD, Franklin Lakes, NJ, USA). Cell cycle distribution in four phases (subG1, G1, S, G2/M) was gated and analyzed in Kaluza Analysis Software (Beckman Coulter Inc., Indianapolis, IN, USA).
Background: A flow cytometer gives signals particle by particle.

The test system of experiment [2] is patient-derived TNBC tumors. Description: Orthotopic patient-derived xenograft (PDX) model, tumor growth. Particulars: NSG mice. The experiment is classed as in vivo. From the text: The procedures for the establishment of breast cancer-bearing xenograft models were modified from previous publications and approved by the Taipei Medical University (TMU) Institutional Animal Care and Use Committee (IACUC No. LAC- 2021-0546) and the Joint Institutional Review Board of Taipei Medical University (N201812005). Overall, 4- to 6-week-old NOD.Cg-PrkdcscidIl2rgtm1Wjl/SzJ (NSG) female mice purchased from BioLASCO Taiwan Co., Ltd. (Taipei, Taiwan) were housed in specific pathogen-free rooms with ad libitum feeding and 12 h light–dark cycle. Patient-derived TNBC tumors were microscopically considered for a hypervascular background and frequent mitosis features, and triple-negative results for estrogen receptor, progesterone receptor and human epidermal growth factor receptor 2 (HER2). After a week of acclimatization, patient-derived TNBC tumors dissected into 3 × 3 × 3 mm^3 were implanted using puncture needle in fat pads between the third and fourth mammary glands for each mouse.
Tumor growth curves were generated by measuring tumor diameters and then calculating based on the same equation described above. Finally, the mice were sacrificed on day 23 after the first dose of treatments. Plasma, tumors and major organs (heart, liver, kidney, spleen and lung) were collected for toxicity assessment and metastasis evaluation.
In general terms: In xenograft studies the graft and the host belong to different species.

The subject of experiment [3] is COLO205. Description: MTT cell viability assay on COLO205. In kind it is cell-based, human. The note with it: for reduction (proliferative inhibition): COLO205, 20 μM; for IC50: COLO205, MTT assay, 48 h. The method, then:
(§1) Human cancer cell lines, including MDA-MB-231, MCF-7, COLO205 and SK-OV-3, used in this study were purchased from American Type Culture Collection (ATCC, Manassas, VA, USA). All cell cultures were maintained in a 5% CO2-containing incubator at 37 °C. Triple-negative breast cancer cell line MDA-MB-231 and estrogen receptor-positive breast cancer cells MCF-7 were cultured in Dulbecco’s Modified Eagle Medium/Nutrient Mixture F-12 medium (DMEM/F12, Thermo Fisher Scientific Inc., Waltham, MA, USA) supplemented with 1% HyClone Penicillin-Streptomycin 100X solution (Cytiva, Marlborough, MA, USA) and 10% (v/v) fetal bovine serum (Thermo Fisher Scientific Inc., Waltham, MA, USA). COLO205 colon cancer cells and SK-OV-3 ovarian cancer cells were cultured in Roswell Park Memorial Institute (RPMI) 1640 medium (Thermo Fisher Scientific Inc., Waltham, MA, USA) containing the same supplements as described above.
(§2) Cell viability was evaluated using MTT assay. […] A viable cell count was determined by adding MTT reagent (3-(4,5-Dimethyl-2-thiazolyl)-2,5-diphenyl-2H-tetrazolium bromide (MTT; SERVA, Heidelberg, Germany) at a concentration of 5 mg/mL in PBS followed by measurement of the absorbance at 570 nm for each well detected by μQuant™ universal microplate spectrophotometer (BioTek, Winowski, VT, USA). The assessment procedures were followed under the manufacturer’s instructions. The final results were represented as mean values in the same experimental group detected by a microplate reader.
For orientation: Formazan colour is commonly taken as a measure of viable cells.

Experiment [4] concerns calf thymus DNA (ct-DNA). Description: UV-Vis spectrum of DNA-drug complex. In kind it is binding. The note with it: 25 ng/μL ct-DNA, 40-640 μM, 6 h, 37 °C. How it is done:
The binding of the platinum-based agent with calf thymus DNA (ct-DNA) was assessed using UV-visible spectroscopy. […] Absorption between the wavelengths of 220 nm and 500 nm was detected by measuring absorbance every 2 nm via Thermo Varioskan Flash microplate reader (Thermo Fisher Scientific Inc., Waltham, MA, USA). The maximal absorbance of DNA at 260 nm was marked to highlight the spectrum in pure DNA without chemical intercalation.

Experiment [5] has as its system SK-OV-3. Kind of experiment: MTT cell viability assay on SK-OV-3. The experiment is classed as cell-based, human. Particulars: for IC50: SK-OV-3, MTT assay, 48 h. The method, then: as §1, §2
The target in experiment [6] is bovine serum albumin (BSA) (Bos taurus, UniProt P02769). Kind of experiment: UV-Vis spectrum of BSA-drug complex. In kind it is binding. The note with it: 250 μM BSA in PBS pH 7.4, 20-640 μM. From the text:
Absorption between the wavelengths of 220 nm and 500 nm was detected by measuring absorbance every 2 nm via Thermo Varioskan Flash microplate reader (Thermo Fisher Scientific Inc., Waltham, MA, USA). The maximal absorbance of BSA at 278 nm was marked to highlight the spectrum in pure BSA without chemical intercalation.

In experiment [7] the test system is HCT-15. Kind of experiment: MTT cell viability assay on HCT-15 (supplement). The experiment is classed as cell-based. Particulars: 20 to 80 μM, 24 or 48 h, supplementary figure. How it is done: Figure S11. TFBPC and glycyrrhizic acid micelles (GAM)-encapsulated TFBPC […]
NSG mice (N = 16) with implantation of MDA-MB-231 cells on the left flank were intraperitoneally administrated with PBS (5 mL/kg), TFBPC (5 mg/kg) or glycyrrhizic acid micelles (GAM)-encapsulated TFBPC (5 mg/kg) once per week and four times total in the whole course of treatment. Tumor volume of each animal was measured by caliper for monitoring its tumor growth and then sacrificed 49 days after the first dose of treatment. Mean ± SD. **** p < 0.0001. […]
colorectal cancers. Cisplatin and three platinum-based analogues, including (4, 4-3F) PtCl2 (A), TFBPC (B) and (4, 4-5F) PtCl2 (C), were assessed for cell viability using MTT assay. MDA-MB-231 breast cancers cells (D), COLO205 (E) and HCT-15 (F) colorectal cancer cells were given various concentrations of cisplatin or analogues ranging from 20 to 80 μM for 24 or 48 h. Results were shown in mean ± SD and statistically analyzed by one-way ANOVA and Tukey’s post hoc test. * p < 0.05, ** p < 0.01, *** p < 0.001, **** p < 0.0001. […]

As usually defined, the IC50 is the point on the concentration scale where inhibition reaches its midpoint.

Chain of bovine serum albumin (BSA) (P02769 25-607): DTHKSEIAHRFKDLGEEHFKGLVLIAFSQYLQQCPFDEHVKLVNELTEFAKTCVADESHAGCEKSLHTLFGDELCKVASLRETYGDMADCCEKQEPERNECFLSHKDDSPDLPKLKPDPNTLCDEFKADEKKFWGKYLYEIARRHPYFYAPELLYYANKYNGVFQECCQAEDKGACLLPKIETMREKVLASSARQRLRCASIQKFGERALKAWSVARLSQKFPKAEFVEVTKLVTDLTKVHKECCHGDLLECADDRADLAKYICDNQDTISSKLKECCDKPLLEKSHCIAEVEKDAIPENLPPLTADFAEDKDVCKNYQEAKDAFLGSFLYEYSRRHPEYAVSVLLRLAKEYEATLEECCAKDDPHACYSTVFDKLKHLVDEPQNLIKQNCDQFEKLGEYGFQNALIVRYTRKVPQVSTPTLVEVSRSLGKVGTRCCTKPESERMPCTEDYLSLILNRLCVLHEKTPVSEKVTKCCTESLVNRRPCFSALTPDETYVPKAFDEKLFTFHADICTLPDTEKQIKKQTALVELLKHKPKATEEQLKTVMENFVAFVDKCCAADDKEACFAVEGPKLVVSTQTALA

Consider `N.N.[Cl][Pt][Cl]` [CDDP, Cis-diamineplatinum(II) dichloride], for which the “DNA content in S phase” value in experiment [1] (MDA-MB-231, 2.5 μM) came to 26.8%; in experiment [1] (MDA-MB-231, 5 μM), 32.27%; in experiment [1] (MDA-MB-231, 10 μM), 39.65%. For the same compound, the “average tumor volume vs. control” value in experiment [2] (2.11 or 5 mg/kg i.v. weekly x4) was “no statistical difference”. In addition, in experiment [3], the “reduction (proliferative inhibition)” value came to 23%. For the same compound, the figures for the IC50 in experiment [3] and in experiment [5] were 70 µM and 41 µM, respectively. Also, in experiment [4], the “change in UV-Vis absorption spectrum of ct-DNA at 260 nm” value was “hypochromic profile”.
Take `FC(F)C(F)(F)COCc1ccnc(-c2cc(COCC(F)(F)C(F)F)ccn2)c1.[Cl][Pt][Cl]` [TFBPC]: the “UV absorbance of BSA at 278 nm vs. concentration” value in experiment [6] is reported as “positively correlated”. In addition, the “cell viability of HCT-15 cells” value in experiment [7] is recorded as “statistically reduced cell viability”. Besides, the “DNA content in sub G1” value is recorded as 14.8% in experiment [1] (MDA-MB-231, 2.5 μM); 23.14% in experiment [1] (MDA-MB-231, 5 μM); 27.15% in experiment [1] (MDA-MB-231, 10 μM). In addition, in experiment [2] (5 mg/kg i.v. weekly x4, day 23), the “average tumor volume and weight compared among groups” value is “smallest size in volume”. In addition, in experiment [3], the “reduction (proliferative inhibition)” value came to 72%. For the same compound, the IC50 turned out to be 11.5 µM in experiment [3] and 1.92 µM in experiment [5]. In addition, in experiment [3] (MTT, 20 to 80 μM, 24 or 48 h, supplementary figure), the “cell viability of COLO205 cells” value is recorded as “effective in inhibiting the cell viability”. For the same compound, the “change in UV-Vis absorption spectrum of ct-DNA at 260 nm” value in experiment [4] is “hyperchromicity profile”. In addition, the “reduction in cell viability” value in experiment [5] (SK-OV-3, 0.625 μM) was found to be 29%; in experiment [5] (SK-OV-3, 1.23 μM) it was 54%; in experiment [5] (SK-OV-3, 2.5 μM), 78%.
